Data set [1] concerns the target human constitutive 20S proteasome cCP, PA activity (β1) (Homo sapiens, UniProt P28072). The data set is described as follows: Inhibition of PA activity of human cCP (substrate Z-LLE-βNA). The settings on record: for inhibition at 50 µM: pH 8, read-out: % inhibition at 50 μM PA, cCP.
Procedure: (§7) They were assayed for in vitro inhibition of purified human cCP and iCP by measuring the hydrolysis of the β5 (ChT-L) substrate Suc-LLVY-AMC, β1 (PA) substrate Z-LLE-βNA, and β2 (T-L) substrate Boc-LRR-AMC in the presence of various concentrations of the tested molecules.
(§8) The experimental data are adjusted to equation 1 (c) or equation 2 (a, a’, b, b’, c’).
(§9) Purified human constitutive 20S proteasome cCP and human 20S immunoproteasome iCP from erythrocyte were obtained from Boston Biochem (Cambridge, USA). All fluorogenic substrates (Suc-LLVY-AMC, Boc-LRR-AMC, and Z-LLE-βNA) were obtained from Bachem (Weil am Rhein, Germany). […] Fluorescence was measured using a BMG Fluostar microplate reader (black 96-well microplates).
(§10) Substrates and compounds were previously dissolved in DMSO. The buffers were (pH 8.0): 20 mM Tris, 10% (v/v) glycerol, 0.01% (w/v) SDS, and 2% (v/v) DMSO (ChT-L and PA activities); 20 mM Tris, 10% (v/v) glycerol, 0.01% (w/v). The final iPR and cPR concentrations were 0.3 nM using 20 μM Suc-LLVY-AMC (ChT-L), 50 μM Boc-LRR-AMC (T-L) and 100 μM Z-LLE-βNA (PA). […] The enzyme and the inhibitors were incubated for 15 min before the measurement of the enzyme activity. Initial rates determined in control experiments (V0) were considered to be 100 % of the peptidase activity; initial rates (Vi) that were above 100 % in the presence of a tested compound were considered to be activations (expressed as activation factor), while initial rates below 100 % were considered to be inhibitions. […] The values of IC50 were calculated by fitting the experimental data to the equation 1 or equation 2, where nH is the Hill number.
In data set [2] the target is human constitutive 20S proteasome cCP, ChT-L activity (β5) (Homo sapiens, UniProt P28074). The data set is described as follows: Inhibition of ChT-L activity of human cCP (substrate Suc-LLVY-AMC). The following applies: for inhibition at 50 µM: pH 8, read-out: % inhibition at 50 μM ChT-L, cCP; for factor by which ChT-L activity of cCP is more efficiently inhibited than PA: PA vs ChT-L.
Procedure: as §7, §8, §9, §10

The target in data set [3] is human constitutive 20S proteasome cCP, T-L activity (β2) (Homo sapiens, UniProt Q99436). The data set is described as follows: Inhibition of T-L activity of human cCP (substrate Boc-LRR-AMC). The settings on record: for fold induction at 50 µM: pH 8, read-out: x (activation factor) at 50 μM T-L, cCP; for inhibition at 50 µM: pH 8, read-out: % inhibition at 50 μM T-L, cCP.
Procedure: as §7, §8, §9, §10

The target in data set [4] is human 20S immunoproteasome iCP, ChT-L activity (β5) (Homo sapiens, UniProt P28062). Kind of data set: Inhibition of ChT-L activity of human iCP (substrate Suc-LLVY-AMC). The following applies: for inhibition at 50 µM: pH 8, read-out: % inhibition at 50 μM ChT-L, iCP; for ratio cCP/iCP, ChT-L activity: IC50 cCP / IC50 iCP.
Procedure: as §7, §8, §9, §10
Data set [5] concerns the target human 20S immunoproteasome iCP, PA activity (β1) (Homo sapiens, UniProt P28065). The data set is described as follows: Inhibition of PA activity of human iCP (substrate Z-LLE-βNA). The settings on record: for inhibition at 50 µM: pH 8, read-out: % inhibition at 50 μM PA, iCP; for ratio cCP/iCP, PA activity: IC50 cCP / IC50 iCP.
Procedure: as §7, §8, §9, §10
In data set [6] the target is human 20S immunoproteasome iCP, T-L activity (β2) (Homo sapiens, UniProt P40306). The data set is described as follows: Inhibition of T-L activity of human iCP (substrate Boc-LRR-AMC). The settings on record: for fold induction at 50 µM: pH 8, read-out: x (activation factor) at 50 μM T-L, iCP.
Procedure: We decided to explore further their properties by testing their potential to inhibit human iCP versus cCP. They were assayed for in vitro inhibition of purified human cCP and iCP by measuring the hydrolysis of the β5 (ChT-L) substrate Suc-LLVY-AMC, β1 (PA) substrate Z-LLE-βNA, and β2 (T-L) substrate Boc-LRR-AMC in the presence of various concentrations of the tested molecules.
as §8
Purified human constitutive 20S proteasome cCP and human 20S immunoproteasome iCP from erythrocyte were obtained from Boston Biochem (Cambridge, USA). All fluorogenic substrates (Suc-LLVY-AMC, Boc-LRR-AMC, and Z-LLE-βNA) were obtained from Bachem (Weil am Rhein, Germany). Other reagents and solvents were purchased from commercial sources. Fluorescence was measured using a BMG Fluostar microplate reader (black 96-well microplates).
as §10
For data set [7], the system named is CT-26 cells (colon cancer). The data set is described as follows: Cell Titer96 non-radioactive cell proliferation assay, CT-26. It counts as cell-based. The following applies: 10 μM, 24 h, vs control cells. As to the method:
(§1) We first analyzed the cytotoxic effects of B1f and B3 treatment on colon (CT-26) and breast cancer cells (MDA-MB-231 cells) using the MTT cell viability assay. B1f and B3 inhibited the viability of these cells in a dose-dependent manner after 48 h treatment. Higher doses of B1f and B3 lead to 100% cytotoxicity (Figure 4A). […] We next assessed the effect of B1f and B3 on the proliferation of these cells during 24h. […] Similarly, to evaluate whether these inhibitors can affect their invasion, tumor cells were incubated for 24 h in a microchemotaxis chamber pre-coated with collagen IV (Figure 4C) in the presence of the compounds B1f or B3.
(§2) Figure 4 Effect of compounds B1f and B3 on tumor cell proliferation and invasion A. CT-26 and MDA-MB 231 cells were treated with various concentrations of indicated compounds for 48h and cells viability was measured by MTT assay. […] Cell proliferation was assessed using Cell Titer96 non-radioactive cell proliferation assay. […]
(§3) For the viability assay, CT-26 (colon cancer) and MDA-MB231 (breast cancer) cells were plated in triplicate on 96 wells plate (5.10^3/well). After treatment with indicated drugs, cells were incubated for 48 hours at 37°C and incubated with solution of 5 mg/ml of 3-(4,5-dimethylthiazol-2-yl)-2,5-diphenyltetrazolium bromide (MTT) tetrazolium substrate (Sigma) for 30 minutes at 37°C prior analysis on a microplate reader at 570. […]

The test system of data set [8] is MDA-MB-231 cells (breast cancer). The data set is described as follows: MTT cell viability assay, MDA-MB-231. It counts as cell-based. The following applies: for cytotoxicity at higher doses: 48 h; for CC50: Homo sapiens, 48 h treatment, MTT, read-out: LC50 (the source's name). How it is done:
as §1
(§4) Figure 4 Effect of compounds B1f and B3 on tumor cell proliferation and invasion A. CT-26 and MDA-MB 231 cells were treated with various concentrations of indicated compounds for 48h and cells viability was measured by MTT assay. B. Tumor cells were serum deprived overnight and then treated for 24 h with control media (None) or media containing compound B3 or B1f. Cell proliferation was assessed using Cell Titer96 non-radioactive cell proliferation assay. Results are shown as means ± S.E. of three experiments performed in triplicate. *P < 0.05. **P < 0.001. *** P < 0.0001. C. Indicated tumor cells were incubated in a microchemotaxis chamber pre-coated with collagen IV for cell invasion assay as described in the Materials and Methods section. The results are represented as the percentage of invading cells. Data are representative of 3 experiments and shown as mean ± S.E. (n=3 per group). **P < 0.001. *** P < 0.0001.
(§5) For the viability assay, CT-26 (colon cancer) and MDA-MB231 (breast cancer) cells were plated in triplicate on 96 wells plate (5.10^3/well). After treatment with indicated drugs, cells were incubated for 48 hours at 37°C and incubated with solution of 5 mg/ml of 3-(4,5-dimethylthiazol-2-yl)-2,5-diphenyltetrazolium bromide (MTT) tetrazolium substrate (Sigma) for 30 minutes at 37°C prior analysis on a microplate reader at 570. The LC50 value was defined as the drug concentration causing 50% cell death (LD = lethal dose) compared to growth of the untreated control cells. For cell proliferation, cells were plated in triplicate on 96 wells plate (5.10^3/well) under serum free conditions for 24 h. The starved cells were then incubated for 24h with fresh media containing the two selected compounds B1f and B3 that inhibit both ChT-L and PA activities of iCP and cCP. […] Proliferation level in cells was evaluated, as reported previously using the Cell Titer96 non-radioactive cell proliferation assay kit (Promega) according to manufacturer’s protocol
In general terms: Formazan colour is commonly taken as a measure of viable cells.

For data set [9], the system named is CT-26 cells (colon cancer). The data set is described as follows: Cell invasion assay, microchemotaxis chamber pre-coated with collagen IV, CT-26. It counts as cell-based. The settings on record: 10 μM, 24 h. How it is done:
as §1, §2
(§6) Cell invasion were determined using 24-well microchemotaxis chambers precoated with 7.5 μg collagen type IV (Becton Dickinson Labware), as previously described. […] Cell invasion were quantified by determination of the number of cells that migrated directly through the membrane toward the medium containing 10% serum that was used as a chemoattractant. […]

Data set [10] deals with MDA-MB-231 cells (breast cancer). The data set is described as follows: Cell Titer96 non-radioactive cell proliferation assay, MDA-MB-231. It counts as cell-based. The settings on record: 10 μM, 24 h, vs control cells. How it is done:
as §1, §2, §3

Data set [11] relates to CT-26 cells (colon cancer). The data set is described as follows: MTT cell viability assay, CT-26. It counts as cell-based. The following applies: for cytotoxicity at higher doses: CT-26 cells, 48 h; for CC50: Mus musculus, CT26 cells, 48 h treatment, MTT, read-out: LC50 (the source's name). As to the method: as §1, §4, §5
Data set [12] deals with MDA-MB-231 cells (breast cancer). Kind of data set: Cell invasion assay, microchemotaxis chamber pre-coated with collagen IV, MDA-MB-231. It counts as cell-based. The following applies: 10 μM, 24 h. As to the method:
as §1, §2, §6

Molecules are shown by their SMILES.

As a reminder, the inhibition is the change of the read-out against control, counted positive when it falls. A word on the IC50: it is the midpoint of a concentration-inhibition curve. Lower therefore signals inhibition by little substance.

For `O=[N+]([O-])c1ccc(N2CCN(S(=O)(=O)c3ccc(Cl)cc3)CC2)cc1Sc1ccccn1` [Compound B1d], the inhibition at 50 µM in [1] was 46%; in [2], less than 25%. In addition, in data set [3], the fold induction at 50 µM was 4.7.

For `O=[N+]([O-])c1ccc(N2CCN(S(=O)(=O)Cc3ccccc3)CC2)cc1NCCN1CCOCC1` [Compound B4], the inhibition at 50 µM in data set [1], in [2] and in data set [3] was less than 25% throughout.

On to `CC(C)(C)c1ccc(S(=O)(=O)N2CCN(c3ccc(Cl)cc3[N+](=O)[O-])CC2)cc1` [Compound B1c], for which the inhibition at 50 µM in data set [1], in data set [4], in data set [2] and in [5] was less than 25% throughout. In addition, the IC50 in [3] is 8.1 µM; in [6] it was 3.3 ± 0.4 µM. Besides, in [6], the “cCP/iCP ratio for the IC50 values, T-L activity” value (“cCP/iCP ratio” for short) is given as 2.4.

In turn, `O=[N+]([O-])c1ccc(N2CCN(S(=O)(=O)c3ccc4ccccc4c3)CC2)cc1SCCN1CCOCC1` [Compound B2a] came in with an IC50 in data set [1] of 31.2 ± 1 µM. Also, the inhibition at 50 µM in data set [3] was less than 25%.

Turning to `O=[N+]([O-])c1ccc(N2CCN(S(=O)(=O)c3ccc(Cl)cc3)CC2)cc1SCc1ccco1` [Compound B1f], the half-inhibitory concentration (IC50) is 7.4 µM in [1], 5.8 ± 0.2 µM in data set [4], 3.2 µM in [2] and 3.7 ± 0.2 µM in data set [5]. Also, the effect on proliferation result in [7] and in data set [10] was “significant reduction in their proliferation” each time. In addition, the “cytotoxicity at higher doses” value in data set [8] and in data set [11] was 100% each time. In addition, the CC50 is 45.8 ± 5.2 µM in [8] and 24.4 ± 8.6 µM in data set [11]. In addition, in data set [4], the “ratio cCP/iCP, ChT-L activity” value was found to be 0.45. In addition, the “factor by which ChT-L activity of cCP is more efficiently inhibited than PA” value in data set [2] is recorded as 2.3. Further, the inhibition at 50 µM in data set [3] is less than 25%. Besides, the effect on invasion entry in data set [9] and in data set [12] was “clearly decreased their ability to invade” each time. Further, the “ratio cCP/iCP, PA activity” value in data set [5] is 2. Further, the fold induction at 50 µM in data set [6] was 3.

On to `O=[N+]([O-])c1ccc(N2CCN(S(=O)(=O)c3ccc4ccccc4c3)CC2)cc1` [Compound B2b], for which the inhibition at 50 µM was 50% in data set [1] and 58.9% in data set [2]. Besides, the fold induction at 50 µM in data set [3] stood at 4.5.

For `O=C(COc1ccc2ccccc2c1)N1CCN(S(=O)(=O)c2ccc([N+](=O)[O-])cc2)CC1` [Compound B3], the IC50 is 8.1 µM in data set [1], 6.7 ± 0.2 µM in data set [4], 6.5 µM in [2] and 7.1 ± 0.2 µM in [5]. For the same compound, the effect on proliferation entry in data set [7] and in data set [10] was “significant reduction in their proliferation” in each case. Further, the “cytotoxicity at higher doses” value in data set [8] and in [11] was 100% in each case. In addition, the CC50 in data set [8] was found to be 15.4 ± 4.7 µM; in data set [11], 26.4 ± 1.7 µM. For the same compound, the inhibition at 50 µM in [3] is less than 25%; in data set [6] (pH 8, read-out: % inhibition at 50 μM T-L, iCP), less than 25%. Moreover, the effect on invasion entry in data set [9] and in data set [12] was “clearly decreased their ability to invade” in each case.

Take `COc1ccc(S(=O)(=O)N2CCN(c3ccc([N+](=O)[O-])c(NCC(C)(C)C)c3)CC2)cc1OC` [Compound B1i]: the inhibition at 50 µM in [1], in [2] and in data set [3] was less than 25% in each case.

As for `CC(C)Cc1ccc(S(=O)(=O)N2CCN(c3ccc([N+](=O)[O-])cc3)CC2)cc1` [Compound B1a], the inhibition at 50 µM in data set [1] was less than 25%; in data set [4], less than 25%; in data set [2], less than 25%; in [5], 25%. In data set [3], the IC50 was 10.3 µM. Also, the “cCP/iCP ratio” value in data set [6] stood at 1.4.

As for `CC(=O)Nc1ccc(S(=O)(=O)N2CCN(c3ccc([N+](=O)[O-])c(NCCN4CCOCC4)c3)CC2)cc1` [Compound B1h], the figures for the inhibition at 50 µM in data set [1] and in data set [3] were 45% and less than 25%, respectively.

Take `Cc1ccccc1N1CCN(S(=O)(=O)c2ccc(C(C)(C)C)cc2)CC1` [Compound B1b]: the inhibition at 50 µM in data set [1], in data set [4], in [2] and in data set [5] was less than 25% in each case. Further, the IC50 is 12 µM in data set [3] and 2.6 ± 0.4 µM in [6]. Also, the “cCP/iCP ratio” value in data set [6] was 4.6.

In turn, `Cc1ccc(S(=O)(=O)N2CCN(c3ccc([N+](=O)[O-])c(SCc4ccco4)c3)CC2)cc1` [Compound B1e] gave an IC50 in data set [1] of 4.2 µM. In addition, in data set [4], half-maximal inhibition (IC50) was put at 5.5 ± 0.3 µM and the “ratio cCP/iCP, ChT-L activity” value was 0.55. In addition, in data set [2], it took 2.5 µM to reach half-maximal inhibition (IC50) and the “factor by which ChT-L activity of cCP is more efficiently inhibited than PA” value was found to be 1.7. In [3], the inhibition at 50 µM is less than 25%. Moreover, in [5], the IC50 turned out to be 3.3 ± 0.3 µM and the “ratio cCP/iCP, PA activity” value came to 1.3. The fold induction at 50 µM in data set [6] stood at 3.

`CC(C)(C)c1ccc(S(=O)(=O)N2CCN(c3ccc([N+](=O)[O-])c(NCc4ccccn4)c3)CC2)cc1` [Compound B1g]: the IC50 is 13.9 ± 1.4 µM in data set [1] and 24.6 ± 3.5 µM in data set [2]. In addition, the inhibition at 50 µM in data set [3] is less than 25%.

The record behind these values is paper PMC5354670, “Blockade of the malignant phenotype by β-subunit selective noncovalent inhibition of immuno- and constitutive proteasomes” (Oncotarget, 2017).
